Entries after “also recorded” stand apart in the source; their conditions may differ.
How the values were obtained:
[1] = pKa and free amine of the alkalizer; type: physicochemical; conditions: at a pH of about 7.5
[2] = Permanent wave evaluation of waving lotions on hair tresses (waving efficiency); conditions: for Tress Length (cm) Lt / Percent Waving Efficiency: amine 0.75M with 13.2 wt. % (0.8M) GMT, pH 7.5, 37° C. for 20 minutes; for Tress Length (cm) Lt: length of permed hair measured in the water, shorter = tighter curl
Source text: The pH was adjusted using a 10 wt. % HCl solution. Tresses were rolled onto mandrels and evaluated using the permanent wave evaluation procedure that follows. Procedure for Permanent Wave Evaluation […] 1. A bundle of 16 inch long medium virgin brown hair was secured with beeswax by dipping approximately 2 inches of the root end of the bundled hair into melted wax for 5 seconds. When the wax is cool to the touch, it is shaped into a square and allowed to harden. 2. Hair is broken into smaller bundles, washed with a 10 wt. % sodium lauryl sulfate solution and then rinsed. 3. Hair is sectioned into tresses of 45 hairs and the waxed end is re-waxed to further secure the tress. The wax is allowed to dry, and a piece of tape is wrapped around it to provide a writing surface. […] 4. An 8 cm long, 1.25 cm diameter spiral rod with 25 turns is used. The waxed end of the hair is secured between the 9th and 10th turns using a rubber band. […] 5. A piece of tape, width 2.5 cm, is wrapped sideways around the bottom edge of the hair, covering the bottom 2.5 cm. A 3.4 g alligator clip is used to secure the tape. Using a piece of copper wire as a hook, a 6 oz. weight is hung from the tape at the bottom of the hair. The hair is rolled around the rod, using the weight to provide equal tension during rolling. The weight is removed after rolling, and the bottom tape is secured around the rod with a piece of Tygon tubing. 6. […] The solution completely covers the hair. The test tube is placed in a constant temperature water bath at 37° C. for 20 minutes. 7. The rod is removed and rinsed for 3 minutes under running tap water at approximately 30° C. and a flow rate of approximately 1 liter/minute. The rod is then placed into a new test tube with 10 mL of neutralizer (2 wt. % hydrogen peroxide, 0.05 wt. % polyquat-11, and phosphoric acid to pH 3.1). The rod is removed and rinsed with the 30° C. tap water for 2 minutes. 8. The tress is soaked in a bowl of 30° C. tap water for 5 minutes to allow complete oxidation. The tress is then carefully unrolled from the rod without tension, starting from the bottom and keeping the spiral configuration intact. The tape is cut off the hair using scissors while the hair is still on the rod. […] 10. […] A glass container (10×11.5×4 in) is used in which clear plastic rulers are glued along the front and back walls. A copper wire is secured across the top of the container. The rulers should be lined up to provide a way to accurately measure the hair. A copper wire hook is placed through the tape at the top of the tress and hung on the wire. […] Waving Efficiency After the procedure, the lengths of the tresses were measured in a water bath. The shorter the tress, the tighter the curl and the better the product. The curl is measured from the end of the wax to the end of the curl. [formula] where Li=initial length of tress from wax end to tip Lo=length of tress when wrapped on the rod Lt=length of permed hair from wax end to tip, measured in the water

Question: For NC(CO)(CO)CO [Tris, tris(hydroxymethyl)amino methane], which free amine [1] is on record?
Answer: about 22%

Question: And the “Tress Length (cm) Lt” value [2]?
Answer: 15.7 ± 0.9 cm

Question: And the “performance as alkalizer in waving lotion (in words)” value ([2]; low pH waving lotion, in combination with a reducing agent)?
Answer: effective alkalizer; also recorded: better results than monoethanolamine

Question: Which results are given for NCCO [Monoethanolamine]?
Answer: free amine [1]: one; free amine ([1]; listed as monoethanolamine): 1%; Percent Waving Efficiency [2]: 45.4%; Tress Length (cm) Lt [2]: 16.1 ± 0.5 cm

Question: With N [Ammonia] as the compound, how does the “Percent Waving Efficiency” value [2] read?
Answer: 47.8%

Question: And the “Tress Length (cm) Lt” value [2]?
Answer: 15.5 ± 1.2 cm

— US6426065B1 (Clairol Incorporated, priority 2000, dated 2002)
